Source: US7198942B2, “Acetylcholine receptor subunits” (Bayer CropScience LP, priority 2000, dated 2007)

Key:
[1] = system: Untransfected control cells (Sf9); experiment: Whole-cell recordings on untransfected Sf9 control cells; type: cell-based, Spodoptera frugiperda; settings: untransfected Sf9 control cells in the same experiment
Excerpt: Spodoptera frugiperda 9 (Sf9) cells were transfected simultaneously with cDNA expression plasmids which code for the modified heliothis/chicken subunit and for the chicken β2 subunit using a liposomal transfection reagent (DAC-30, Eurogentec, Belgium). A cDNA expression construct for the green fluorescent protein from Aequoria victoria was transfected simultaneously. This makes it possible simply to identify transfected cells because experience has shown that most of the cells which have taken up one of the constructs have also taken up the other ones. 24 to 48 hours after transfection, the currents through the cell membrane of the Sf9 cells were measured by whole-cell recordings. For this purpose, the potential difference across the cell membrane was kept constant at −70 mV. Substances were applied using the U-tube reversed flow technique (Fenwick 1982). […]
To check whether expression of the cDNAs which code for the modified heliothis/chicken subunit shown in SEQ ID NO: 3 and the chicken β2 subunit led to the production of functional acetylcholine receptors in the cells, whole-cell recordings were carried out by the method described above, during which the cells were stimulated with acetylcholine (1000 μM) or imidacloprid (100 μM). […] In order to quantify the results, a series of experiments was carried out with 5 measurements. […]

[2] = target: chicken α4 subunit and the chicken β2 subunit (Gallus gallus, UniProt P09482+P09484); experiment: Whole-cell recordings on transfected Sf9 cells, chicken α4/β2; type: cell-based; settings: −70 mV
[3] = system: receptors comprising unmodified Heliothis α1 subunits and chicken β2 subunits; experiment: Dual electrode voltage clamp on Xenopus oocytes expressing Heliothis α1/chicken β2 receptors; type: cell-based, Heliothis virescens / chicken; settings: membrane voltage −80 mV, FIG. 2C
Experimental: (§1) Xenopus oocytes were isolated and prepared as previously described (Bertrand et al. 1991). On the first day after isolation of the oocytes, in each case 10 nl of a solution with 2 ng of an appropriate cDNA expression vector were injected into the cell nuclei of the oocytes. The oocytes were kept at 19° C. in a suitable medium (BARTH solution consisting (in mM) of NaCl 88, KCl 1, NaHCO3 2.4, MgSO4 0.82, Ca(NO3)2 0.33, CaCl2 0.41, HEPES 10, pH 7.4) for 3–5 days. After this time, the electrophysiological experiments were carried out.
Electrophysiological recordings were carried out using a dual electrode voltage clamp by tried and tested methods which are well known (compare Bertrand et al. 1992). Each oocyte was placed singly in a measurement chamber and pierced by two microelectrodes. […] The membrane voltage was fixed at −80 mV using a voltage clamp amplifier (TEC-00, npi, Tamm, Germany), and the inward current flowing through the cell membrane was measured and recorded by computer. […]
(§2) In order to characterize the sensitivity of the modified receptors to acetylcholine and imidacloprid in more detail, dose-effect plots were recorded by repeating the experiment described above with different concentrations of the substance.

[4] = target: T1, receptors consisting of the chicken β2 subunit and polypeptide according to SEQ ID NO: 3 (Gallus gallus, UniProt P09482+P09484, A129E/D127N/D141T/F139N/F162Y/H132L/H137T/I144V/K145E/K171V/L133A/M147R/N169T/S157E/T161E); type: cell-based, Heliothis virescens / chicken; settings: Xenopus oocytes, membrane voltage −80 mV, FIG. 2A
T1 construct: expressed in transfected cells; host or cells: Xenopus oocytes (nuclear injection of cDNA expression vectors)
Experimental: as §1
(§3) Electrophysiological recordings were carried out using a dual electrode voltage clamp by tried and tested methods which are well known (compare Bertrand et al. 1992). Each oocyte was placed singly in a measurement chamber and pierced by two microelectrodes. […] The membrane voltage was fixed at −80 mV using a voltage clamp amplifier (TEC-00, npi, Tamm, Germany), and the inward current flowing through the cell membrane was measured and recorded by computer. Frog Ringer solution containing 115 mM NaCl; 2.5 mM KCl; 1.8 mM CaCl2; 10 mM HEPES; at pH 7.4 (adjusted with NaOH) flowed at a flow rate of 5–10 ml/minute through the measurement chamber. In order to test acetylcholine, imidacloprid or another active substance on these oocytes, the substance was added in the intended concentration to the frog Ringer solution and the perfusion of the measurement chamber was briefly changed over to this test solution. Acetylcholine (Fluka, Buchs, Switzerland) was stored as stock solution at −20° C. and added to the measurement solution immediately before the experiment.
(§4) In this case it is immediately evident from the occurrence of an additional inward current signal whether the receptor variant expressed in the particular oocyte can be activated by imidacloprid or not.
as §2

[5] = target: T2, receptors consisting of the chicken β2 subunit and polypeptide according to SEQ ID NO: 7 (Gallus gallus, UniProt P09482+P09484, INS192RGTNVVELG); type: cell-based, Heliothis virescens / chicken; settings: Xenopus oocytes, membrane voltage −80 mV
T2 construct: expressed in transfected cells; host or cells: Xenopus oocytes (nuclear injection of cDNA expression vectors)
Experimental: as §1, §3, §4, §2

[6] = target: T3, receptors consisting of the chicken β2 subunit and polypeptide according to SEQ ID NO: 11 (Gallus gallus, UniProt P09482+P09484, A209V/D197E/E200T/E219T/G202V/G211A/I207L/I224P/K217F/L196S/N208E/N212V/P226L/Q195L/S215E/S231N/T222D/V205D/V210P/W199Y/Y198F/Y213R/Y230F); type: cell-based, Heliothis virescens / chicken; settings: Xenopus oocytes, membrane voltage −80 mV
T3 construct: expressed in transfected cells; host or cells: Xenopus oocytes (nuclear injection of cDNA expression vectors)
Experimental: as §1, §3, §4, §2

[7] = target: T4, receptor containing polypeptide shown in SEQ ID NO: 3 and the chicken β2 subunit (Gallus gallus, UniProt P09482+P09484, A129E/D127N/D141T/F139N/F162Y/H132L/H137T/I144V/K145E/K171V/L133A/M147R/N169T/S157E/T161E); experiment: Whole-cell recordings on transfected Sf9 cells, SEQ ID NO: 3/chicken β2; type: cell-based, Heliothis virescens / chicken; settings: −70 mV
T4 construct: expressed in transfected cells; host or cells: Spodoptera frugiperda Sf9 cells (transient, DAC-30; GFP co-transfected as a marker)
Excerpt: Spodoptera frugiperda 9 (Sf9) cells were transfected simultaneously with cDNA expression plasmids which code for the modified heliothis/chicken subunit and for the chicken β2 subunit using a liposomal transfection reagent (DAC-30, Eurogentec, Belgium). A cDNA expression construct for the green fluorescent protein from Aequoria victoria was transfected simultaneously. This makes it possible simply to identify transfected cells because experience has shown that most of the cells which have taken up one of the constructs have also taken up the other ones. 24 to 48 hours after transfection, the currents through the cell membrane of the Sf9 cells were measured by whole-cell recordings. For this purpose, the potential difference across the cell membrane was kept constant at −70 mV. Substances were applied using the U-tube reversed flow technique (Fenwick 1982). The volume of the experimental chamber, which was continuously perfused with bath solution (3 ml/min), was less than 0.5 ml. […] The pipette solution contained (in mM): 150 KCl, 10 HEPES 10 K-EGTA (pH 7.2). The microelectrodes were produced in an electrode puller (Zeitz, Germany) from borosilicate glass blanks (external diameter 1.6 mm, Hilgenberg, Germany). The resistance of the flame-polished microelectrodes on use of the abovementioned pipette and bath solutions was between 4 and 6 MΩ. […]

Row | Compound | response (inward current) [1] | inward currents on application ([2]; 100 μM imidacloprid) | amplitude ratio (maximum amplitude on 100 μM imidacloprid divided by maximum amplitude on 1000 μM acetylcholine) ([2]; n=5 cells) | sensitivity (ligand-induced conductance) [3] | ligand-induced conductance / sensitivity [4] | ligand-induced conductance / sensitivity [5] | ligand-induced conductance / sensitivity [6] | inward currents after stimulus ([7]; 100 μM imidacloprid, FIG. 3) | amplitude ratio (maximum amplitude on 100 μM imidacloprid divided by maximum amplitude on 1000 μM acetylcholine) ([7]; n=5 cells)
1 | CC(=O)OCC[N+](C)(C)C [acetylcholine] | no response |  |  |  |  |  |  |  | 
2 | O=[N+]([O-])NC1=NCCN1Cc1ccc(Cl)nc1 [imidacloprid] | no response | either no or only very weak inward currents | 0.05±0.06 | sensitive | sensitive | only the receptors consisting of the chicken β2 subunit and polypeptides according to SEQ ID NO: 3 are sensitive to imidacloprid | only the receptors consisting of the chicken β2 subunit and polypeptides according to SEQ ID NO: 3 are sensitive to imidacloprid | strong inward currents | 0.46±0.09
